Among the data in patent US9580390B2, “Indazole compounds as kinase inhibitors and method of treating cancer with same” (University Health Network, priority 2011, dated 2017) are IC50 and GI50 values, retold here.

Bounds are passed on as bounds.

For test [1], the target named is T1, human PLK4 (Homo sapiens, UniProt O00444).
T1 construct: amino terminal GST fusion of residues 1-391 of human PLK4; made in house; host or cells: E. coli
T1 sequence (O00444 1-391): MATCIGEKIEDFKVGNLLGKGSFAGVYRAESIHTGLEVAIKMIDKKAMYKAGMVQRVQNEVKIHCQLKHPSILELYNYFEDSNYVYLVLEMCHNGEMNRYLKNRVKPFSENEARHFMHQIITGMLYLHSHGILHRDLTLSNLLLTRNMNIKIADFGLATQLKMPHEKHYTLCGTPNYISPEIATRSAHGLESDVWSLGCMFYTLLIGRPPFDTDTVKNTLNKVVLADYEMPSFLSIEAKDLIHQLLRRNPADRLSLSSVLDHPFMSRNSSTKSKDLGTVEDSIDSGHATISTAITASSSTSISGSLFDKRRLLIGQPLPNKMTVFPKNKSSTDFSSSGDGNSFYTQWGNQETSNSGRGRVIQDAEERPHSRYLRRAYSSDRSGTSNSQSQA
Kind of test: PLK4 inhibition assay (indirect ELISA). The test is classed as biochemical. To be noted: 15 μM ATP. As for the experimental part: Active PLK4 was purified from an E. coli expression system as an amino terminal GST fusion of residues 1-391 of human PLK4. The protein was purified from clarified cell extracts after induction at 15° C. overnight using glutathione sepharose, gel permeation chromatography, and ion exchange (Resource Q). The resulting protein was dephosphorylated with lambda phosphatase (NEB cat# P0753), and resolved from the phosphatase using gluthione sepharose. The dephosphorylated GST-PLK4 was stored in aliquots at −80° C. until use.
PLK4 activity was measured using an indirect ELISA detection system. Dephosphorylated GST-PLK4 (4 nM) was incubated in the presence of 15 μM ATP (Sigma cat# A7699), 50 mM HEPES-[…] pH 7.4, 10 mM MgCl2, 0.01% Brij 35 (Sigma cat# 03-3170), in a 96 well microtitre plate pre-coated with MBP (Millipore cat#30-011). The reaction was allowed to proceed for 30 minutes, followed by 5 washes of the plate with Wash Buffer (50 mM TRIS-Cl pH 7.4 and 0.2% Tween 20), and incubation for 30 minutes with a 1:3000 dilution of primary antibody (Cell Signaling cat# 9381). The plate was washed 5 times with Wash Buffer, incubated for 30 minutes in the presence of secondary antibody coupled to horse radish peroxidase (BioRad cat# 1721019, 1:3000 concentration), washed an additional 5 times with Wash Buffer, and incubated in the presence of TMB substrate (Sigma cat# T0440). The colourimetric reaction was allowed to continue for 5 minutes, followed by addition of stop solution (0.5 N sulphuric acid), and quantified by detection at 450 nm with either a monochromatic or filter based plate reader (Molecular Devices M5 or Beckman DTX880, respectively).
Compound inhibition was determined at either a fixed concentration (10 μM) or at a variable inhibitor concentration (typically 50 μM to 0.1 μM in a 10 point dose response titration). Compounds were pre-incubated in the presence of enzyme for 15 minutes prior to addition of ATP and the activity remaining quantified using the above described activity assay. The % Inhibition of a compound was determined using the following formula: % Inhibition=100×(1−(experimental value−background value)/(high activity control−background value)). The IC50 value was determined using a non-linear 4 point logistic curve fit (XLfit4, IDBS) with the formula: (A+(B/(1+((x/C)^D)))), where A=background value, B=range, C=inflection point, D=curve fit parameter.
(An ELISA detects its analyte on a solid surface through an enzyme-linked reagent.)

For test [2], the system named is colon cancer cells (HCT116). As to the kind of experiment: Cancer cell line growth inhibition (SRB assay). The test is classed as cell-based. To be noted: Homo sapiens, HCT-116; HCT116 colon cancer cells, SRB assay; read-out: Cancer Cell Line GI50 Range HCT116. A general note: Sulforhodamine B stains cellular protein and so reports cell mass.
The test system of test [3] is ovarian cancer cells (PA-1). Kind of test: Cancer cell line growth inhibition (SRB assay). It is filed as cell-based. The settings on record: PA-1 ovarian cancer cells, SRB assay; read-out: Cancer Cell Line GI50 Range PA-1.

The term IC50 denotes the concentration that inhibits the measured activity by half. What is called GI50 is the concentration at which growth is held to half of that of the control. Consider `O=C(Nc1ccc2[nH]nc(-c3ccc(OCCCN4CCOCC4)cc3)c2c1)C(c1ccsc1)N1CCCC1` (stereo not shown) [Example A45, N-(3-(4-(3-morpholinopropoxy)phenyl)-1H-indazol-5-yl)-2-(pyrrolidin-1-yl)-2-(thiophen-3-yl)acetamide], for which the IC50 in test [1] is under 50 nM. The concentration for 50% growth inhibition (GI50) in test [2] was under 100 nM.
For `O=C(Nc1ccc2[nH]nc(-c3ccc4c(c3)OCO4)c2c1)C(c1ccsc1)N1CCCC1` (stereo not shown) [Example A14, N-(3-(benzo[d][1,3]dioxol-5-yl)-1H-indazol-5-yl)-2-(pyrrolidin-1-yl)-2-(thiophen-3-yl)acetamide], in that order: under 50 nM and over 500 nM.
Take `O=C(NC(c1ccsc1)C1CC1)c1ccc2[nH]nc(-c3ccc(N4CCC(O)CC4)cc3)c2c1` (stereo not shown) [Example A101, N-(cyclopropyl(thiophen-3-yl)methyl)-3-(4-(4-hydroxypiperidin-1-yl)phenyl)-1H-indazole-5-carboxamide]: the half-inhibitory concentration (IC50) in test [1] is under 50 nM.
The same measure, in the same setting: the value for `CN1CCC(Oc2ccc(-c3n[nH]c4ccc(NC(=O)C(c5ccsc5)N5CCCC5)cc34)cc2)CC1` (stereo not shown) [Example A7, N-(3-(4-((1-methylpiperidin-4-yl)oxy)phenyl)-1H-indazol-5-yl)-2-(pyrrolidin-1-yl)-2-(thiophen-3-yl)acetamide] was under 50 nM.
Turning to `O=C(Nc1ccc2[nH]nc(-c3ccc(N4CCC(CO)CC4)cc3)c2c1)C(c1ccsc1)N1CCCC1` (stereo not shown) [Example A95, N-(3-(4-(4-(hydroxymethyl)piperidin-1-yl)phenyl)-1H-indazol-5-yl)-2-(pyrrolidin-1-yl)-2-(thiophen-3-yl)acetamide], the IC50 in test [1] is under 50 nM. The 50% growth inhibitory concentration (GI50) in test [3] and in test [2] was under 100 nM in each case.
Turning to `CN1CCC(Oc2ccc(-c3n[nH]c4ccc(NC(=O)C(c5ccsc5)N5CCCC5)cc34)cc2Cl)CC1` (stereo not shown) [Example A57], the concentration for half-maximal inhibition (IC50) in test [1] was under 50 nM. In addition, the GI50 in test [2] is 100 to 500 nM.
Regarding `C[C@@H]1CCCN1[C@@H](C(=O)Nc1ccc2[nH]nc(-c3ccc(N4CCOCC4)cc3)c2c1)c1ccsc1` [Example A97, (R)-2-((R)-2-methylpyrrolidin-1-yl)-N-(3-(4-morpholinophenyl)-1H-indazol-5-yl)-2-(thiophen-3-yl)acetamide], in test [1], the IC50 was under 50 nM. The concentration for 50% growth inhibition (GI50) in test [3] and in test [2] was 100 to 500 nM in each case.
On to `CN1CCC(Oc2ccc(-c3n[nH]c4ccc(NC(=O)C(c5ccccn5)C5CCCC5)cc34)cc2)CC1` (stereo not shown) [Example A179, 2-cyclopentyl-N-(3-(4-((1-methylpiperidin-4-yl)oxy)phenyl)-1H-indazol-5-yl)-2-(pyridin-2-yl)acetamide], for which the IC50 in test [1] was under 50 nM.
The same measure, in the same setting: the value for `CC(C)C[C@H](NC(=O)c1ccc2[nH]nc(-c3ccc(N4C5COCC4CC(O)C5)cc3)c2c1)c1ccccn1` (stereo partly drawn) [Example A306, 3-(4-((1R,5S,7R)-7-hydroxy-3-oxa-9-azabicyclo[3.3.1]nonan-9-yl)phenyl)-N-((S)-3-methyl-1-(pyridin-2-yl)butyl)-1H-indazole-5-carboxamide] was under 50 nM.
As to `O=C(Nc1ccc2[nH]nc(-c3ccc(OC4CCN(CCF)CC4)cc3)c2c1)C(c1ccsc1)N1CCCC1` (stereo not shown) [Example A102, N-(3-(4-((1-(2-fluoroethyl)piperidin-4-yl)oxy)phenyl)-1H-indazol-5-yl)-2-(pyrrolidin-1-yl)-2-(thiophen-3-yl)acetamide], the IC50 in test [1] is under 50 nM. Further, the GI50 in test [3] and in test [2] was under 100 nM in each case.
As to `COc1ccccc1C(C(=O)Nc1ccc2[nH]nc(-c3ccc(OC4CCN(C)CC4)cc3)c2c1)C1CCCC1` (stereo not shown) [Example A156, 2-cyclopentyl-2-(2-methoxyphenyl)-N-(3-(4-((1-methylpiperidin-4-yl)oxy)phenyl)-1H-indazol-5-yl)acetamide], in test [1], the IC50 is under 50 nM. Also, the GI50 in test [3] was over 500 nM; in test [2], 100 to 500 nM.
As for `O=C(Nc1ccc2[nH]nc(-c3ccc(NC4CCOCC4)cc3)c2c1)C(c1ccsc1)N1CCCC1` (stereo not shown) [Example A71, 2-(pyrrolidin-1-yl)-N-(3-(4-((tetrahydro-2H-pyran-4-yl)amino)phenyl)-1H-indazol-5-yl)-2-(thiophen-3-yl)acetamide], in test [1], the IC50 is under 50 nM. Further, the GI50 in test [2] is under 100 nM.
`CN1CCC(Oc2ccc(-c3n[nH]c4ccc(NC(=O)C(c5ccccc5F)C5CCCC5)cc34)cc2)CC1` (stereo not shown) [Example A162, 2-cyclopentyl-2-(2-fluorophenyl)-N-(3-(4-((1-methylpiperidin-4-yl)oxy)phenyl)-1H-indazol-5-yl)acetamide]: the concentration for half-maximal inhibition (IC50) in test [1] was under 50 nM. Besides, the GI50 in test [3] and in test [2] was 100 to 500 nM each time.
In the case of `CCC(NC(=O)c1ccc2[nH]nc(-c3ccc(OC4CCN(C)CC4)cc3)c2c1)C1CCCCC1` (stereo not shown) [Example A69, N-(1-cyclohexylpropyl)-3-(4-((1-methylpiperidin-4-yl)oxy)phenyl)-1H-indazole-5-carboxamide], the IC50 in test [1] was under 50 nM. For the same compound, the GI50 in test [2] lay in the range of 100 to 500 nM.
For `C[C@@H]1CN(c2ccc(-c3n[nH]c4ccc(NC(=O)C(c5ccsc5)N5CCCC5)cc34)cc2)C[C@H](C)O1` (stereo partly drawn) [Example A50, N-(3-(4-((2S,6R)-2,6-dimethylmorpholino)phenyl)-1H-indazol-5-yl)-2-(pyrrolidin-1-yl)-2-(thiophen-3-yl)acetamide], in that order: under 50 nM and under 100 nM.
With `O=C(Nc1ccc2[nH]nc(-c3ccc4c(c3)OCCO4)c2c1)C(c1ccsc1)N1CCCC1` (stereo not shown) [Example A15, N-(3-(2,3-dihydrobenzo[b][1,4]dioxin-6-yl)-1H-indazol-5-yl)-2-(pyrrolidin-1-yl)-2-(thiophen-3-yl)acetamide], the IC50 in test [1] was under 50 nM. Moreover, the GI50 in test [2] is over 500 nM.
With `COCCN1CCC(Oc2ccc(-c3n[nH]c4ccc(C(=O)NC(c5ccsc5)C5CCCC5)cc34)cc2)CC1` (stereo not shown) [Example A155, N-(cyclopentyl(thiophen-3-yl)methyl)-3-(4-((1-(2-methoxyethyl)piperidin-4-yl)oxy)phenyl)-1H-indazole-5-carboxamide], the IC50 in test [1] was under 50 nM. Moreover, the GI50 in test [3] and in test [2] was 100 to 500 nM in each case.
For the compound `COCCN1CCC(Oc2ccc(-c3n[nH]c4ccc(C(=O)N[C@H](C)c5ccccc5F)cc34)cc2)CC1` [Example A129, (R)-N-(1-(2-fluorophenyl)ethyl)-3-(4-((1-(2-methoxyethyl)piperidin-4-yl)oxy)phenyl)-1H-indazole-5-carboxamide], the IC50 in test [1] was under 50 nM. Besides, the GI50 in test [3] and in test [2] was 100 to 500 nM in each case.
Consider `O=C(Nc1ccc2[nH]nc(-c3ccc(OC4CCNCC4)c(Cl)c3)c2c1)C(c1ccsc1)N1CCCC1` (stereo not shown) [Example A34, N-(3-(3-chloro-4-(piperidin-4-yloxy)phenyl)-1H-indazol-5-yl)-2-(pyrrolidin-1-yl)-2-(thiophen-3-yl)acetamide], for which the half-inhibitory concentration (IC50) in test [1] is under 50 nM. In addition, in test [2], the GI50 was under 100 nM.
For `O=C(Nc1ccc2[nH]nc(-c3ccc(N4CCOCC4)c(F)c3)c2c1)C(c1ccsc1)N1CCCC1` (stereo not shown) [Example A60, N-(3-(3-fluoro-4-morpholinophenyl)-1H-indazol-5-yl)-2-(pyrrolidin-1-yl)-2-(thiophen-3-yl)acetamide], in that order: under 50 nM and 100 to 500 nM.
